The target in the assay is Janus kinase 2 (JAK2) (Homo sapiens, UniProt O60674).
Janus kinase 2 (JAK2), sequence (O60674 whole entry): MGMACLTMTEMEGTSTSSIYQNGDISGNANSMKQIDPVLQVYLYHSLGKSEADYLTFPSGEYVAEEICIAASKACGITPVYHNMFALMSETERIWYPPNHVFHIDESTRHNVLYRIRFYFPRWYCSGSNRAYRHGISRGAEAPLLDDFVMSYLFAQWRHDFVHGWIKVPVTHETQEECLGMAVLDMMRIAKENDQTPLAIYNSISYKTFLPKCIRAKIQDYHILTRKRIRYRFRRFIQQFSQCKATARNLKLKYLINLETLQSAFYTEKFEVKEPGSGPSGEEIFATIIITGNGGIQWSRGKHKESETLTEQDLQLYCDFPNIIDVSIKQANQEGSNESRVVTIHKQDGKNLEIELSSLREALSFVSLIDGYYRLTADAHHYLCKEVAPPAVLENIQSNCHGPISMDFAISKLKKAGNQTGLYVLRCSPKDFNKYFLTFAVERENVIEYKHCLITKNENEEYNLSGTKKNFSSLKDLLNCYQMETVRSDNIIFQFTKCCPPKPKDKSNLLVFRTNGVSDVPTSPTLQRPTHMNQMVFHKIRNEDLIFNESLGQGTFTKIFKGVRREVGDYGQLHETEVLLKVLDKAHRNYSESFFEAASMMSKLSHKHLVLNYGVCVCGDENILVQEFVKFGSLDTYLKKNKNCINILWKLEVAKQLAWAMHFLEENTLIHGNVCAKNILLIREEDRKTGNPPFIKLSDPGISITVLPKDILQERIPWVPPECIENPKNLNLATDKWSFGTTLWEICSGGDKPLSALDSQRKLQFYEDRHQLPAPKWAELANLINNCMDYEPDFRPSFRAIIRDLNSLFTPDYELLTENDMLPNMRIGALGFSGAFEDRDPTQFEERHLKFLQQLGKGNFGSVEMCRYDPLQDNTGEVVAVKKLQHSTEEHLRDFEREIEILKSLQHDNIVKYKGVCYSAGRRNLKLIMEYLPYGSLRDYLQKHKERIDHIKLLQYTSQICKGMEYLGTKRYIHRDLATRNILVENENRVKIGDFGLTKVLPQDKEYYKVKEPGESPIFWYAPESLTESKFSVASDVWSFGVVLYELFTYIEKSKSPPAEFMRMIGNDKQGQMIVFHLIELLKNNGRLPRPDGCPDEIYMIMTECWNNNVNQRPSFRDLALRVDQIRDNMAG

In general, IC50 refers to the midpoint of a concentration-inhibition curve. A low value points to higher potency. Take `CN1CCN(c2cccc(Nc3nc4c(-c5ccc(S(C)(=O)=O)cc5)cccn4n3)c2)CC1` [CEP-33779]: inhibition was half-maximal at 1.8 ± 0.6 nM (IC50).

For the origin of these results see paper PMC3132063 (2011).
